# Source: patent US20260158002A1, “APPLICATION OF COMPOSITION CONTAINING EDARAVONE AND DEXBORNEOL IN IMPROVING OR TREATING COGNITIVE IMPAIRMENT” (NEURODAWN PHARMACEUTICAL CO., LTD., priority 2021, published 2026)
# What was measured:
# GABAAR receptors = conditions: cited from earlier work
# primary cortical neurons = assay: Aβ1-42-induced primary cortical neuronal injury test (Luminescent Cell Viability Assay); format: cell-based, rat; conditions: single agent, pre-incubation 30 min before oligomerized Aβ1-42 50 μM, 24 h; edaravone 3.7 to 100 μM, dexborneol 1.2 to 100 μM; vs DMSO group
# Procedure: A SD pregnant rat at 18 days of pregnancy was sacrificed by cervical dislocation, the uteruses of the rat were dissected, the brain of E18 fetal rat was taken out, the cerebral cortical tissue of the fetal rat was isolated into an ice-cold DMEM, the meninge and blood vessels were removed from the cortical tissue under a dissecting microscope, the cortical tissue was transferred to an ice-cold DMEM and minced (about 1 mm^3), and digested with trypsin at 37° C. for 10 min, the digestion was terminated with FBS, a Pasteur pipette was used to perform gentle pipetting and dispersing, and screening was then performed using a 200-mesh sieve. […] The cells were counted by a hemocytometer, diluted to 5×10^5 cells/ml with a complete medium, and seeded in a 96-well plate coated with PDL (100 μL/well) for culture. […]
# The medium of the in vitro matured primary neurons was replaced with a complete medium containing different concentrations (1.2, 3.7, 11.1, 33.3, 100.0 μM) of edaravone (E), dexborneol (B) or an edaravone and dexborneol composition (EB), after incubation at 37° C. for 30 min, oligomerized Aβ1-42 (final concentration of 50 μM) was added, the culture was continued for 24 h, and the neuronal viability was tested. […] LUMbackground is the background reading of the cell-free medium well into which Luminescent Cell Viability Assay kit is added. […]
# [1] = test system: pro-inflammatory factors (TNF-α, IL-1β, etc.) and inflammatory proteins (iNOS and COX-2); conditions: cited from earlier work
smiles,measurement,setting,value
"CC1(C)[C@@H]2CC[C@@]1(C)[C@@H](O)C2 [dexborneol, (+)-borneol]",agonism of inhibitory GABAAR receptors,GABAAR receptors,can agonize inhibitory GABAAR receptors
same,"inhibiting Aβ-induced neurotoxicity, increasing the cell viability",primary cortical neurons,capable of inhibiting Aβ-induced neurotoxicity in a concentration-dependent manner
same,pro-inflammatory factors and inflammatory proteins within the brain,[1],"reduce multiple pro-inflammatory factors (TNF-α, IL-1β, etc.) and inflammatory proteins (iNOS and COX-2) within the brain"
